Molecular target: T1, Sav2152 (Staphylococcus aureus, UniProt A0A0H3JWK0)
T1 construct: monomer; C-terminus (res. 234-285) disordered in crystal
Test: EnzChek phosphatase assay, DiFMU release
Assay type: biochemical
Settings: 100 uM DiFMUP, 10 uM protein, 1 mM Mg2+, 100 mM NaCl, 25 mM Tris-HCl pH 7.0

T1 sequence (A0A0H3JWK0 entry or part of it): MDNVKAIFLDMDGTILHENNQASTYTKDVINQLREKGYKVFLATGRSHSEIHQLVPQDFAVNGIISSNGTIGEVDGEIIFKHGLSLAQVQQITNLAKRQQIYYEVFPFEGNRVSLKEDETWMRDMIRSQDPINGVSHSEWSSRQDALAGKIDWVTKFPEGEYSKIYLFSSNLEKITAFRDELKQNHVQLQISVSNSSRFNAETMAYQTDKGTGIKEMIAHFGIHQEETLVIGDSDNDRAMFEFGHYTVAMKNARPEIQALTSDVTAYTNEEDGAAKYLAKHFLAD

Cc1cc(=O)oc2c(F)c(OP(=O)(O)O)c(F)cc12 [DiFMUP]
EnzChek phosphatase assay, DiFMU release: enzymatic activity of this protein was investigated using a simple phosphatase assay kit with DiFMUP
